Experimental data published in patent US5214037A, “Thioalkylthio cephalosporin derivatives” (Shionogi & Co., Ltd., priority 1990, dated 1993).
Converted amounts (≈) assume the structure as drawn. Structures can show the parent of a compound that is named as a salt.

Tests used:
[1] = test system: Enterobacter cloacae SR233; assay: Antibacterial activity in vitro, minimal inhibitory concentration (two-fold agar dilution); type: cell-based
Experimental: (§1) Antibacterial activity in vitro : A solution of the test compound in 0.01N-aqueous sodium hydrogen carbonate was applied to an agar plate by two-fold dilution method and the minimal inhibitory concentrations against Gram-negative and Gram-positive bacteria were measured according to the standard method of the Japan Society of Chemotherapy.

Morgania morganii SR9 = assay: as above; type: cell-based
Experimental: as §1

[2] = Blood level at 15 minutes after oral administration to mice; type: in vivo, mouse; details: 40 mg/kg oral; for concentration at 0.25 h: mouse, blood
Experimental: The in vivo absorption rate of the compound I after oral administration was determined by administering a compound of the invention to mouse and measuring the blood level.
Blood level at 15 minutes after oral administration : A test compound (40 mg/kg) in a 5% suspension of arabic gum was administered to a mouse (weighing ca. 25 g) through an enteral tube. After 15 minutes, the blood in the heart cavity was taken and the concentration of the test compound was measured by the band culture method using Escherichia coli 7437.

[3] = test system: Staphylococcus aureus Smith; assay: Antibacterial activity in vitro, minimal inhibitory concentration (two-fold agar dilution); type: cell-based
Experimental: as §1

[4] = test system: Staphylococcus aureus 209P JC-1; assay: as above; type: cell-based; details: Staphylococcus aureus 209P JC-1, agar dilution
Experimental: as §1

Escherichia coli 7437 = assay: as above; type: cell-based; details: Escherichia coli 7437, agar dilution
Experimental: as §1

Proteus vulgaris CN-329 = assay: as above; type: cell-based; details: CN329; Proteus vulgaris CN-329, agar dilution
Experimental: as §1

Escherichia coli EC-14 = assay: as above; type: cell-based; details: EC14; Escherichia coli EC-14, agar dilution
Experimental: as §1

[5] = test system: Pseudomonas aeruginosa A25619; assay: as above; type: cell-based
Experimental: as §1

Proteus mirabilis PR4 = assay: as above; type: cell-based
Experimental: as §1

[6] = test system: Serratia marcescens SR1005; assay: as above; type: cell-based
Experimental: as §1

[7] = test system: Serratia marcescens A13880; assay: as above; type: cell-based
Experimental: as §1

[8] = test system: Haemophilus influenzae SR3508; assay: as above; type: cell-based
Experimental: as §1

[9] = test system: Klebsiella pneumoniae SR1; assay: as above; type: cell-based; details: unit cut off in print
Experimental: as §1

Escherichia coli SR377 = assay: as above; type: cell-based
Experimental: as §1

Nc1nc(/C(=N/O)C(=O)N[C@@H]2C(=O)N3C(C(=O)O)=C(SCSCc4c[nH]nn4)CS[C@H]23)cs1 [Example 6-1, 7β-[(Z)-2-(2-aminothiazol-4-yl) -2-hydroxyiminoacetamido]-3-(1,2,3-triazol-4-ylmethylthiomethylthio) -3-cephem-4-carboxylic acid]
MIC [1]: 0.8 µg/mL (≈ 1.51 µM)
MIC (Morgania morganii SR9): 0.1 µg/mL (≈ 0.189 µM)
concentration at 0.25 h [2]: 12100 ng/mL

O=C(CSC(F)F)N[C@@H]1C(=O)N2C(C(=O)O)=C(SCSc3c[nH]nn3)CS[C@H]12 [Example 7-1, 7β-difluoromethylthioacetamido-3-(1,2,3-triazol-4-ylthiomethylthio)-3-cephem-4-carboxylic acid]
MIC [3]: 0.1 µg/mL (≈ 0.213 µM)
concentration at 0.25 h [2]: 28000 ng/mL

O=C(Cc1ccccc1)N[C@@H]1C(=O)N2C(C(=O)O)=C(SCSc3c[nH]nn3)CS[C@H]12 [Example 7-2, 7β-phenylacetylamino-3-(1,2,3-triazol-4-yl) thiomethylthio-3-cephem-4-carboxylic acid]
MIC [4]: 0.05 µg/mL (≈ 0.108 µM)
MIC [3]: 0.05 µg/mL (≈ 0.108 µM)
concentration at 0.25 h [2]: 15000 ng/mL

O=C(O)C1=C(SCSc2c[nH]nn2)CS[C@@H]2[C@H](NC(=O)[C@H](O)c3ccccc3)C(=O)N12 [Example 7-3, 7β-D-mandelamido-3-(1,2,3-triazol-4-ylthiomethylthio)-3-cephem-4-carboxylic acid]
concentration at 0.25 h [2]: 18500 ng/mL

Nc1nc(/C(=N/O)C(=O)N[C@@H]2C(=O)N3C(C(=O)O)=C(SCSc4c[nH]nn4)CS[C@H]23)cs1 [Example 7-5]
MIC [1]: 0.8 µg/mL (≈ 1.55 µM)
MIC (Escherichia coli 7437): 0.02 µg/mL (≈ 0.0389 µM)
blood level on oral administration [2]: 29600 ng/mL
concentration at 0.25 h [2]: 29600 ng/mL

CO/N=C(\C(=O)N[C@@H]1C(=O)N2C(C(=O)O)=C(SCSc3c[nH]nn3)CS[C@H]12)c1csc(N)n1 [Example 7-6, 7β-(Z)-2-(2-aminothiazol-4-yl)-2-methoxyiminoacetyl]amino-3-(1,2,3-triazol-4-yl) thiomethylthio-3-cephem-4-carboxylic acid sodium salt]
MIC (Morgania morganii SR9): 0.1 µg/mL
MIC (Proteus vulgaris CN-329): 0.02 µg/mL
concentration at 0.25 h [2]: 15000 ng/mL

Nc1nc(/C(=N/OC2CCCC2)C(=O)N[C@@H]2C(=O)N3C(C(=O)O)=C(SCSc4c[nH]nn4)CS[C@H]23)cs1 [Example 7-7, 7β-[(Z)-2-(2-aminothiazol-4-yl)-2-cyclopentyloxyiminoacetamido]-3-(1,2,3-triazol-4-ylthiomethylthio)-3-cephem-4-carboxylic acid]
MIC (Escherichia coli EC-14): 0.8 µg/mL (≈ 1.37 µM)
MIC [5]: 0.8 µg/mL (≈ 1.37 µM)

C=CCO/N=C(\C(=O)N[C@@H]1C(=O)N2C(C(=O)O)=C(SCSc3c[nH]nn3)CS[C@H]12)c1csc(N)n1 [Example 7-8, 7β-[(Z)-2-(2-aminothiazol-4-yl)-2-(2-propenyloxyimino)acetamido]-3-(1,2,3-triazol-4-ylthiomethylthio) -3-cephem-4-carboxylic acid]
MIC [1]: 0.8 µg/mL (≈ 1.44 µM)
MIC (Escherichia coli EC-14): 0.4 µg/mL (≈ 0.721 µM)

Nc1nc(CC(=O)N[C@@H]2C(=O)N3C(C(=O)O)=C(SCSc4c[nH]nn4)CS[C@H]23)cs1 [Example 7-10, 7β-[2-(2-aminothiazol-4yl)acetamido]-3-(1,2,3-triazol-4-ylthiomethylthio)-3-cephem-4-carboxylic acid]
MIC (Escherichia coli EC-14): 0.8 µg/mL (≈ 1.65 µM)
MIC (Proteus vulgaris CN-329): 0.8 µg/mL (≈ 1.65 µM)
MIC [3]: 0.1 µg/mL (≈ 0.206 µM)
concentration at 0.25 h [2]: 17100 ng/mL

Nc1nc(C(=O)C(=O)N[C@@H]2C(=O)N3C(C(=O)O)=C(SCSc4c[nH]nn4)CS[C@H]23)cs1 [Example 7-11, 7β-[2-(2-aminothiazol-4-yl)glyoxylylamido]-3-(1,2,3-triazol-4-ylthiomethylthio) -3-cephem-4-carboxylic acid]
MIC (Escherichia coli EC-14): 0.4 µg/mL (≈ 0.801 µM)

Nc1nc(/C(=N/OCC(=O)O)C(=O)N[C@@H]2C(=O)N3C(C(=O)O)=C(SCSc4c[nH]nn4)CS[C@H]23)cs1 [Example 7-13, 7μ-[(Z)-2-(2-aminothiazol-4-yl)-2-(sodiooxycarbonylmethoxyimino)acetamido]-3-(1,2,3-triazol-4-ylthiomethylthio) -3-cephem-4-carboxylic acid sodium salt]
MIC (Proteus mirabilis PR4): 0.006 µg/mL
MIC (Proteus vulgaris CN-329): 0.006 µg/mL

C[C@H](O/N=C(\C(=O)N[C@@H]1C(=O)N2C(C(=O)O)=C(SCSc3c[nH]nn3)CS[C@H]12)c1csc(N)n1)C(=O)O [Example 7-14, 7μ-(Z)-2-(2-aminothiazol-4-yl)-2-[(S)-1-sodiooxycarbonylethoxyimino]acetamido}-3-(1,2,3-triazol-4-ylthiomethylthio)-3-cephem-4-carboxylic acid sodium salt]
MIC (Escherichia coli EC-14): 0.2 µg/mL
MIC (Proteus mirabilis PR4): 0.01 µg/mL
MIC (Proteus vulgaris CN-329): 0.006 µg/mL

C=C(O/N=C(\C(=O)N[C@@H]1C(=O)N2C(C(=O)O)=C(SCSc3c[nH]nn3)CS[C@H]12)c1csc(N)n1)C(=O)O [Example 7-15, 7μ-[(Z)-2-(2-aminothiazol-4-yl)-2-(1-carboxyvinyloxyimino)acetamido]-3-(1,2,3-triazol-4-ylthiomethylthio)-3-cephem-4-carboxylic acid]
MIC (Proteus mirabilis PR4): < 0.003 µg/mL
MIC [6]: 0.8 µg/mL (≈ 1.37 µM)

CC(C)(O/N=C(\C(=O)N[C@@H]1C(=O)N2C(C(=O)O)=C(SCSc3c[nH]nn3)CS[C@H]12)c1csc(N)n1)C(=O)O [Example 7-16, 7μ-[(Z)-2-(2-aminothiazol-4-yl) -2-(1-carboxy-1-methylethoxyimino)acetamido]-3-(1,2,3-triazol-4-ylthiomethylthio)-3-cephem-4-carboxylic acid]
MIC (Proteus mirabilis PR4): 0.01 µg/mL (≈ 0.0166 µM)
MIC [5]: 1.6 µg/mL (≈ 2.66 µM)
MIC [7]: 0.8 µg/mL (≈ 1.33 µM)

Cn1cc(SCSC2=C(C(=O)O)N3C(=O)[C@@H](NC(=O)/C(=N\O)c4csc(N)n4)[C@H]3SC2)nn1 [Example 7-17, 7μ-[(Z)-2-(2-aminothiazol-4-yl) -2-hydroxyiminoacetamido]-3-(1-methyl-1,2,3-triazol-4-yl)thiomethylthio-3-cephem-4-carboxylic acid]
MIC [1]: 0.8 µg/mL (≈ 1.51 µM)
MIC (Escherichia coli 7437): 0.02 µg/mL (≈ 0.0378 µM)
MIC [8]: 0.1 µg/mL (≈ 0.189 µM)

Cn1ncc(SCSC2=C(C(=O)O)N3C(=O)[C@@H](NC(=O)/C(=N\O)c4csc(N)n4)[C@H]3SC2)n1 [Example 7-18, 7μ-[(Z)-2-(2-aminothiazol-4-yl)-2-hydroxyiminoacetamido]-3-(2-methyl-1,2,3-triazol-4-yl)thiomethylthio-3 cephem-4-carboxylic acid]
MIC (Escherichia coli 7437): 0.02 µg/mL (≈ 0.0378 µM)

Cn1nncc1SCSC1=C(C(=O)O)N2C(=O)[C@@H](NC(=O)/C(=N\O)c3csc(N)n3)[C@H]2SC1 [Example 7-19]
MIC [1]: 0.4 µg/mL (≈ 0.757 µM)
MIC (Escherichia coli 7437): 0.02 µg/mL (≈ 0.0378 µM)

Nc1nc(/C(=N/O)C(=O)N[C@@H]2C(=O)N3C(C(=O)O)=C(SCSc4nc[nH]n4)CS[C@H]23)cs1 [Example 7-20, 7μ-[(Z)-2-(2-aminothiazol-4-yl)-2-hydroxyiminoacetamido]-3-(1,2,4-triazol-3-yl)thiomethylthio-3-cephem-4-carboxylic acid]
MIC [1]: 0.8 µg/mL (≈ 1.55 µM)
MIC (Escherichia coli 7437): 0.02 µg/mL (≈ 0.0389 µM)
MIC [9]: 0.05 µg/mL (≈ 0.0972 µM)

Nc1nc(/C(=N/O)C(=O)N[C@@H]2C(=O)N3C(C(=O)O)=C(SCSc4cnns4)CS[C@H]23)cs1 [Example 7-24, 7μ-[(Z)-2-(2-aminothiazol-4-yl)-2-hydroxyiminoacetyl]amino-3-(1,2,3-thiadiazol-5-yl) thiomethylthio-3-cephem-4-carboxylic acid]
MIC [1]: 0.4 µg/mL (≈ 0.752 µM)
MIC (Escherichia coli 7437): 0.01 µg/mL (≈ 0.0188 µM)
MIC (Escherichia coli SR377): 0.4 µg/mL (≈ 0.752 µM)

Nc1nc(/C(=N/O)C(=O)N[C@@H]2C(=O)N3C(C(=O)O)=C(SCSc4nncs4)CS[C@H]23)cs1 [Example 7-25, 7μ-[(Z)-2-(2-aminothiazol-4-yl)-2-hydroxyiminoacetamido]-3-(1,3,4-thiadiazol-2-ylthiomethylthio)-3-cephem-4-carboxylic acid]
MIC [1]: 0.4 µg/mL (≈ 0.752 µM)
MIC (Escherichia coli SR377): 0.4 µg/mL (≈ 0.752 µM)
MIC (Morgania morganii SR9): 0.1 µg/mL (≈ 0.188 µM)

Cc1nnc(SCSC2=C(C(=O)O)N3C(=O)[C@@H](NC(=O)/C(=N\O)c4csc(N)n4)[C@H]3SC2)s1 [Example 7-26, 7μ-[(Z)-2-(2-aminothiazol-4-yl)-2-hydroxyiminoacetamido]-3-(2-methyl-1,3,4-thiadiazol-5-ylthiomethylthio)-3-cephem-4-carboxylic acid]
MIC [1]: 0.8 µg/mL (≈ 1.47 µM)
MIC (Escherichia coli 7437): 0.02 µg/mL (≈ 0.0367 µM)
MIC (Escherichia coli SR377): 0.8 µg/mL (≈ 1.47 µM)
MIC (Morgania morganii SR9): 0.05 µg/mL (≈ 0.0916 µM)

Nc1nc(/C(=N/O)C(=O)N[C@@H]2C(=O)N3C(C(=O)O)=C(SCSc4nn[nH]n4)CS[C@H]23)cs1 [Example 7-27, 7μ-[(Z) 2-(2-aminothiazol-4-yl)-2-hydroxyiminoacetyl]amino-3-(tetrazol-5-yl)thiomethylthio-3-cephem-4-carboxylic acid]
MIC (Escherichia coli 7437): 0.01 µg/mL (≈ 0.0194 µM)

Cn1nnnc1SCSC1=C(C(=O)O)N2C(=O)[C@@H](NC(=O)/C(=N\O)c3csc(N)n3)[C@H]2SC1 [Example 7-28, 7μ-[(Z)-2-(2-aminothiazol-4-yl)-2-hydroxyiminoacetyl]amino-3-(1-methyl-5-tetrazolyl) thiomethylthio-3-cephem-4-carboxylic acid]
MIC [1]: 0.8 µg/mL (≈ 1.51 µM)
MIC (Escherichia coli 7437): 0.02 µg/mL (≈ 0.0378 µM)
MIC (Escherichia coli SR377): 0.4 µg/mL (≈ 0.755 µM)
MIC (Morgania morganii SR9): 0.1 µg/mL (≈ 0.189 µM)

Nc1nc(/C(=N/O)C(=O)N[C@@H]2C(=O)N3C(C(=O)O)=C(SCSc4ccccn4)CS[C@H]23)cs1 [Example 7-30]
MIC (Escherichia coli 7437): 0.01 µg/mL (≈ 0.0191 µM)
concentration at 0.25 h [2]: 18700 ng/mL
